Laboratory results from publication PMC3961306, “Comparison of the Cancer Gene Targeting and Biochemical Selectivities of All Targeted Kinase Inhibitors Approved for Clinical Use” (PLoS ONE, 2014).
Read-outs that look alike come from different tables or passages of the source.

Tested on: forty-four human cancer cell lines
Assay: Cell proliferation assay (ATPlite, 72 hours) in the 44 cell line Oncolines panel
Format: cell-based
Settings: for IC50: Homo sapiens
[1] = 4-4 cell, read-out: cell panel IC50, J82
[2] = 4-4 cell, read-out: cell panel IC50, PA-1
[3] = 4-4 cell, read-out: cell panel IC50, SJCRH30
[4] = 4-4 cell, read-out: cell panel IC50, SR
[5] = 769-P, read-out: cell panel IC50, 769-P
[6] = 786-0, read-out: cell panel IC50, 786-0
[7] = A 172, read-out: cell panel IC50, A-172
[8] = A204, read-out: cell panel IC50, A-204
[9] = A498, read-out: cell panel IC50, A-498
[10] = A549, read-out: cell panel IC50, A-549
[11] = A-375, read-out: cell panel IC50, A375
[12] = A-427, read-out: cell panel IC50, A-427
[13] = ACHN, read-out: cell panel IC50, ACHN
[14] = AN3-CA, read-out: cell panel IC50, AN3 CA
[15] = AU565, read-out: cell panel IC50, AU-565
[16] = BT-20, read-out: cell panel IC50, BT-20
[17] = BT-549, read-out: cell panel IC50, BT-549
[18] = BXPC-3, read-out: cell panel IC50, BxPC-3
[19] = C-33-A, read-out: cell panel IC50, C-33 A
[20] = CAL-27, read-out: cell panel IC50, CAL 27
[21] = CCRF-CEM, read-out: cell panel IC50, CCRF-CEM
[22] = DLD-1, read-out: cell panel IC50, DLD-1
[23] = FaDu, read-out: cell panel IC50, FaDu
[24] = HCT-15, read-out: cell panel IC50, HCT-15
[25] = HCT-116, read-out: cell panel IC50, HCT-116
[26] = Hs-578T, read-out: cell panel IC50, Hs 578T
[27] = Jurkat E6.1, read-out: cell panel IC50, Jurkat E6.1
[28] = K562, read-out: cell panel IC50, K-562
[29] = LS174T, read-out: cell panel IC50, LS 174T
[30] = LoVo, read-out: cell panel IC50, LoVo
[31] = MG-63, read-out: cell panel IC50, MG-63
[32] = MOLT-4, read-out: cell panel IC50, MOLT-4
[33] = MeWo, read-out: cell panel IC50, MeWo
[34] = NCI-H82, read-out: cell panel IC50, NCI-H82
[35] = NCI-H460, read-out: cell panel IC50, NCI-H460
[36] = OVCAR-3, read-out: cell panel IC50, OVCAR-3
[37] = RPMI-7951, read-out: cell panel IC50, RPMI-7951
[38] = SHP77, read-out: cell panel IC50, SHP-77
[39] = SK-N-AS, read-out: cell panel IC50, SK-N-AS
[40] = SW48, read-out: cell panel IC50, SW48
[41] = SW480, read-out: cell panel IC50, SW480
[42] = SW-620, read-out: cell panel IC50, SW620
[43] = U2OS, read-out: cell panel IC50, U-2 OS
[44] = U-87 MG, 72 h, read-out: IC50 in cell proliferation assay (table S5 cellpanel data)

## CN(C)C/C=C/C(=O)Nc1cc2c(Nc3ccc(F)c(Cl)c3)ncnc2cc1O[C@H]1CCOC1 [afatinib]
[1]
  IC50: 3340 nM
[2]
  IC50: 1900 nM
[3]
  IC50: 2440 nM
[4]
  IC50: 988 nM
[5]
  IC50: 2230 nM
[6]
  IC50: 2720 nM
[7]
  IC50: 2950 nM
[8]
  IC50: 2220 nM
[9]
  IC50: 2730 nM
[10]
  IC50: 3160 nM
[11]
  IC50: 1280 nM
[12]
  IC50: 2900 nM
[13]
  IC50: 297 nM
[14]
  IC50: 2780 nM
[15]
  IC50: 13 nM
[16]
  IC50: 4350 nM
[17]
  IC50: 3270 nM
[18]
  IC50: 3690 nM
[19]
  IC50: 21 nM
[20]
  IC50: 434 nM
[21]
  IC50: 1280 nM
[22]
  IC50: 1710 nM
[23]
  IC50: 3.42 nM
[24]
  IC50: 1550 nM
[25]
  IC50: 935 nM
[26]
  IC50: 3380 nM
[27]
  IC50: 870 nM
[28]
  IC50: 3270 nM
[29]
  IC50: 1310 nM
[30]
  IC50: 2070 nM
[31]
  IC50: 2830 nM
[32]
  IC50: 922 nM
[33]
  IC50: 3770 nM
[34]
  IC50: 2230 nM
[35]
  IC50: 2640 nM
[36]
  IC50: 2100 nM
[37]
  IC50: 3580 nM
[38]
  IC50: 3660 nM
[39]
  IC50: 2230 nM
[40]
  IC50: 4170 nM
[41]
  IC50: 3640 nM
[42]
  IC50: 3360 nM
[43]
  IC50: 2570 nM
[44]
  IC50: 5020 nM

## Cc1nc(Nc2ncc(C(=O)Nc3c(C)cccc3Cl)s2)cc(N2CCN(CCO)CC2)n1 [dasatinib]
44 cell line panel, Figure 2D
  Difference between the average IC50 in the cell panel and the most potent IC50: more than 1000 fold
[1]
  IC50: 2500 nM
[2]
  IC50: 55 nM
[3]
  IC50: 1290 nM
[4]
  IC50: 3000 nM
[5]
  IC50: 55 nM
[6]
  IC50: 359 nM
[7]
  IC50: 99 nM
[8]
  IC50: 21 nM
[9]
  IC50: 681 nM
[10]
  IC50: 10200 nM
[11]
  IC50: 518 nM
[12]
  IC50: 2180 nM
[13]
  IC50: 48 nM
[14]
  IC50: 3550 nM
[15]
  IC50: 7070 nM
[16]
  IC50: 9800 nM
[17]
  IC50: 143 nM
[18]
  IC50: 204 nM
[19]
  IC50: 9 nM
[20]
  IC50: 153 nM
[21]
  IC50: 7190 nM
[22]
  IC50: 3400 nM
[23]
  IC50: 446 nM
[24]
  IC50: 1680 nM
[25]
  IC50: 14200 nM
[26]
  IC50: 79 nM
[27]
  IC50: 2390 nM
[28]
  IC50: 0.47 nM
[29]
  IC50: 3500 nM
[30]
  IC50: 1580 nM
[31]
  IC50: > 10000 nM
[32]
  IC50: 862 nM
[33]
  IC50: 17000 nM
[34]
  IC50: 10300 nM
[35]
  IC50: 19000 nM
[36]
  IC50: 120 nM
[37]
  IC50: 34 nM
[38]
  IC50: > 31600 nM
[39]
  IC50: 636 nM
[40]
  IC50: > 31600 nM
[41]
  IC50: 2100 nM
[42]
  IC50: 12400 nM
[43]
  IC50: 3230 nM
[44]
  IC50: 14900 nM
